Source: ChEMBL document CHEMBL2401692, “Synthesis, structure-activity relationships, and in vivo efficacy of the novel potent and selective anaplastic lymphoma kinase (ALK) inhibitor 5-chloro-N2-(2-isopropoxy-5-methyl-4-(piperidin-4-yl)phenyl)-N4-(2-(isopropylsulfonyl)phenyl)pyrimidine-2,4-diamine (LDK378) currently in phase 1 and phase …” (J Med Chem, 2013)
pIC50: −log10 of the molar value.

What was measured:
[1] = Intrinsic clearance in human liver microsomes; type: ADME, Microsome; conditions: read-out: CLH
[2] = target: Fibroblast growth factor receptor 3 (Homo sapiens, UniProt P22607); experiment: Inhibition of TEL-fused FGFR3 (unknown origin) by cell-based assay
NCI-H2228 [3] = conditions: Homo sapiens
Description: Antitumor activity against human NCI-H2228 cells xenografted in po dosed Rowett nude rat assessed as tumor growth inhibition administered for 14 days measured 7 to 72 hrs post dosing

[4] = Tmax in Beagle dog at 20 mg/kg, po; type: ADME, organism-based, Canis lupus familiaris; design: dose 20 mg/kg, route oral; conditions: in vivo
[5] = Cmax in BALB/c mouse at 5 mg/kg, iv; type: ADME, organism-based; design: dose 5 mg/kg, route intravenous; conditions: in vivo
[6] = target: Receptor-type tyrosine-protein kinase FLT3 (Homo sapiens, UniProt P36888); experiment: Inhibition of FLT3 (unknown origin) after 60 mins
[7] = Cmax in BALB/c mouse at 20 mg/kg, po; type: ADME, organism-based; design: dose 20 mg/kg, route oral; conditions: in vivo
[8] = Half life in cynomolgus monkey at 5 mg/kg, iv; type: ADME, organism-based, Macaca fascicularis; design: dose 5 mg/kg, route intravenous; conditions: in vivo
[9] = Volume of distribution at steady state in Sprague-Dawley rat at 3 mg/kg, iv; type: ADME, organism-based; design: dose 3 mg/kg, route intravenous; conditions: in vivo, read-out: Vdss
[10] = Inhibition of AKT (unknown origin) after 60 mins; design: species or system Homo sapiens
KARPAS-299 = conditions: Homo sapiens
Description: Antitumor activity against human KARPAS299 cells xenografted in po dosed Rowett nude rat assessed as tumor growth inhibition administered for 14 days measured 7 to 72 hrs post dosing

[11] = Drug uptake in tumor of Rowett nude rat xenografted with human KARPAS299 cells at 50 mg/kg, po; type: ADME, organism-based, Neoplasm, KARPAS-299; design: dose 50 mg/kg, route oral; conditions: in vivo
[12] = Cmax in Beagle dog at 5 mg/kg, iv; type: ADME, organism-based, Canis lupus familiaris; design: dose 5 mg/kg, route intravenous; conditions: in vivo
[13] = Cmax in cynomolgus monkey at 5 mg/kg, iv; type: ADME, organism-based, Macaca fascicularis; design: dose 5 mg/kg, route intravenous; conditions: in vivo
[14] = target: Testis-specific serine/threonine-protein kinase 1 (Homo sapiens, UniProt Q9BXA7); experiment: Inhibition of STK22D (unknown origin) after 60 mins
[15] = Oral bioavailability in BALB/c mouse at 20 mg/kg; type: ADME, organism-based; conditions: in vivo
[16] = target: Transcription factor ETV6 (Homo sapiens, UniProt P41212); experiment: Inhibition of wild-type TEL (unknown origin) by cell-based assay
[17] = target: Tyrosine-protein kinase JAK2 (Homo sapiens, UniProt O60674); experiment: Inhibition of JAK2 (unknown origin) after 60 mins
[18] = AUC in Beagle dog at 5 mg/kg, iv; type: ADME, organism-based, Canis lupus familiaris; design: dose 5 mg/kg, route intravenous; conditions: plasma
[19] = target: Tyrosine-protein kinase Lyn (Homo sapiens, UniProt P07948); experiment: Inhibition of TEL-fused LYN (unknown origin) by cell-based assay
[20] = target: Cyclin-dependent kinase 2 (Homo sapiens, UniProt P24941); experiment: Inhibition of CDK2 (unknown origin) after 60 mins
[21] = target: Tyrosine-protein kinase ABL1 (Homo sapiens, UniProt P00519); experiment: Inhibition of ABL (unknown origin) after 60 mins
[22] = Volume of distribution at steady state in Beagle dog at 5 mg/kg, iv; type: ADME, organism-based, Canis lupus familiaris; design: dose 5 mg/kg, route intravenous; conditions: in vivo, read-out: Vdss
[23] = Tmax in BALB/c mouse at 20 mg/kg, po; type: ADME, organism-based; design: dose 20 mg/kg, route oral; conditions: in vivo
[24] = Tmax in Sprague-Dawley rat at 3 mg/kg, iv; type: ADME, organism-based; design: dose 3 mg/kg, route intravenous; conditions: in vivo
[25] = target: Serine/threonine-protein kinase PAK 2 (Homo sapiens, UniProt Q13177); experiment: Inhibition of PAK2 (unknown origin) after 60 mins
[26] = target: Tyrosine-protein kinase Fgr (Homo sapiens, UniProt P09769); experiment: Inhibition of TEL-fused FGR (unknown origin) by cell-based assay
[27] = AUC in Beagle dog at 20 mg/kg, po; type: ADME, organism-based, Canis lupus familiaris; design: dose 20 mg/kg, route oral; conditions: plasma
Rattus norvegicus [28] = experiment: Toxicity in po dosed Rowett nude rat xenografted with human KARPAS299 cells assessed as body weight loss at 6.25 to 50 mg/kg, po; type: organism-based, KARPAS-299; design: dose 6.25-50 mg/kg, route oral; conditions: in vivo
[29] = target: Proto-oncogene tyrosine-protein kinase Src (Homo sapiens, UniProt P12931); experiment: Inhibition of TEL-fused SRC (unknown origin) by cell-based assay
[30] = target: Hepatocyte growth factor receptor (Homo sapiens, UniProt P08581); experiment: Inhibition of TEL-fused MET (unknown origin) by cell-based assay
[31] = Tmax in BALB/c mouse at 5 mg/kg, iv; type: ADME, organism-based; design: dose 5 mg/kg, route intravenous; conditions: in vivo
Rattus norvegicus [32] = experiment: Inhibition of ALK-mediated STAT3 phosphorylation in human KARPAS299 cells xenografted in Rowett nude rat at 50 mg/kg, po after 72 hrs Western blotting analysis relative to control; type: functional; conditions: KARPAS-299, 72 h
NCI-H2228 [33] = experiment: Antitumor activity against human NCI-H2228 cells xenografted in Rowett nude rat assessed as tumor growth inhibition factor at 10 mg/kg, po for 14 days measured 7 to 72 hrs post dosing relative to control; type: functional
[34] = target: BDNF/NT-3 growth factors receptor (Homo sapiens, UniProt Q16620); experiment: Inhibition of TEL-fused TRKB (unknown origin) by cell-based assay
[35] = target: Tyrosine-protein kinase BTK (Homo sapiens, UniProt Q06187); experiment: Inhibition of BTK (unknown origin) after 60 mins
[36] = Tmax in cynomolgus monkey at 60 mg/kg, po; type: ADME, organism-based, Macaca fascicularis; design: dose 60 mg/kg, route oral; conditions: in vivo
NCI-H2228 [37] = experiment: Antitumor activity against human NCI-H2228 cells xenografted in Rowett nude rat assessed as tumor growth inhibition factor at 5 mg/kg, po for 14 days measured 7 to 72 hrs post dosing relative to control; type: functional
[38] = AUC in BALB/c mouse at 20 mg/kg, po; type: ADME, organism-based; design: dose 20 mg/kg, route oral; conditions: plasma
in vivo = conditions: Sprague-Dawley, rat, po, 10 mg/kg
[39] = target: Tyrosine-protein kinase JAK3 (Homo sapiens, UniProt P52333); experiment: Inhibition of JAK3 (unknown origin) after 60 mins
[40] = Inhibition of Aurora kinase (unknown origin) after 60 mins; design: species or system Homo sapiens
[41] = target: High affinity nerve growth factor receptor (Homo sapiens, UniProt P04629); experiment: Inhibition of TEL-fused TRKA (unknown origin) by cell-based assay
Chain of High affinity nerve growth factor receptor (P04629 33-796 limits assumed): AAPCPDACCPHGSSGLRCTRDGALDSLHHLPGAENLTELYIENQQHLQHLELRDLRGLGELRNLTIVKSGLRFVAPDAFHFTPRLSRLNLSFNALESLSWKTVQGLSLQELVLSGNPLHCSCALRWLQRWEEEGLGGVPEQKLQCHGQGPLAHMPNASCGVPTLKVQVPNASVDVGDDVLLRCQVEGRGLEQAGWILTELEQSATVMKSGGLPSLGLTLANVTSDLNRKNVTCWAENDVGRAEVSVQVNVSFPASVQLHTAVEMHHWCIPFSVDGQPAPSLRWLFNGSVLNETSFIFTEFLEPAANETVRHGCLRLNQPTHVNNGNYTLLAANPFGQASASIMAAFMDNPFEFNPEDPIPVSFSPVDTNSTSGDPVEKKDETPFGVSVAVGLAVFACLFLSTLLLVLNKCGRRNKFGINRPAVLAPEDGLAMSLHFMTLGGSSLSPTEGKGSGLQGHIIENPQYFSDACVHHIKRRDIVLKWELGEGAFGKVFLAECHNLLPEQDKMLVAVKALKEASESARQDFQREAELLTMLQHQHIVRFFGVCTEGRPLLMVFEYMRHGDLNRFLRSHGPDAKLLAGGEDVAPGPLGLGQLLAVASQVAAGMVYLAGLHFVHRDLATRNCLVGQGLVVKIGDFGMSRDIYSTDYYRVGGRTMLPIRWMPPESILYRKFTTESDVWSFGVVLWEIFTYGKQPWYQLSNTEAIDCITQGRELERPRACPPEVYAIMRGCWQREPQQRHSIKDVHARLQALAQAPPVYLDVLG

Chain of BDNF/NT-3 growth factors receptor (Q16620 32-822 limits assumed): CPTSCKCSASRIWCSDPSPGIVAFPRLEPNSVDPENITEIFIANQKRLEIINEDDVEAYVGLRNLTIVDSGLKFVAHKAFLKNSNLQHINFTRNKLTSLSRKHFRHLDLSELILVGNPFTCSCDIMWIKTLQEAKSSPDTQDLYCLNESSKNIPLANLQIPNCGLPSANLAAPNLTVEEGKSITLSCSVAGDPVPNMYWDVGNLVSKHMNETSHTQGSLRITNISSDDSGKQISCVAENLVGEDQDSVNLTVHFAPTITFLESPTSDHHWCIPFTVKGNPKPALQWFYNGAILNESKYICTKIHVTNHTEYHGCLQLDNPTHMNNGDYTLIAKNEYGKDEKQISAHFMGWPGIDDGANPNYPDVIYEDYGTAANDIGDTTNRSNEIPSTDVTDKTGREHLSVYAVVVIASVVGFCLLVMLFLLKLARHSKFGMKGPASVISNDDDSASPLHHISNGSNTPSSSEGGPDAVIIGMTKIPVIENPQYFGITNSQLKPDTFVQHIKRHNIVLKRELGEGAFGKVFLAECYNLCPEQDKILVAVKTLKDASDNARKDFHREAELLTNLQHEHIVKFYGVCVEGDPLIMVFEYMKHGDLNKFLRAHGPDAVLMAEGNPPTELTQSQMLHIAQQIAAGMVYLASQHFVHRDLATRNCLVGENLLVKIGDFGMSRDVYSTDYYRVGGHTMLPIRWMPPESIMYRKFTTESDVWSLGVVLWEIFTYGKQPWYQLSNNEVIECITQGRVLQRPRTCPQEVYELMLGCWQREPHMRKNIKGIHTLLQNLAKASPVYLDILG
Chain of Fibroblast growth factor receptor 3 (P22607 23-806 limits assumed): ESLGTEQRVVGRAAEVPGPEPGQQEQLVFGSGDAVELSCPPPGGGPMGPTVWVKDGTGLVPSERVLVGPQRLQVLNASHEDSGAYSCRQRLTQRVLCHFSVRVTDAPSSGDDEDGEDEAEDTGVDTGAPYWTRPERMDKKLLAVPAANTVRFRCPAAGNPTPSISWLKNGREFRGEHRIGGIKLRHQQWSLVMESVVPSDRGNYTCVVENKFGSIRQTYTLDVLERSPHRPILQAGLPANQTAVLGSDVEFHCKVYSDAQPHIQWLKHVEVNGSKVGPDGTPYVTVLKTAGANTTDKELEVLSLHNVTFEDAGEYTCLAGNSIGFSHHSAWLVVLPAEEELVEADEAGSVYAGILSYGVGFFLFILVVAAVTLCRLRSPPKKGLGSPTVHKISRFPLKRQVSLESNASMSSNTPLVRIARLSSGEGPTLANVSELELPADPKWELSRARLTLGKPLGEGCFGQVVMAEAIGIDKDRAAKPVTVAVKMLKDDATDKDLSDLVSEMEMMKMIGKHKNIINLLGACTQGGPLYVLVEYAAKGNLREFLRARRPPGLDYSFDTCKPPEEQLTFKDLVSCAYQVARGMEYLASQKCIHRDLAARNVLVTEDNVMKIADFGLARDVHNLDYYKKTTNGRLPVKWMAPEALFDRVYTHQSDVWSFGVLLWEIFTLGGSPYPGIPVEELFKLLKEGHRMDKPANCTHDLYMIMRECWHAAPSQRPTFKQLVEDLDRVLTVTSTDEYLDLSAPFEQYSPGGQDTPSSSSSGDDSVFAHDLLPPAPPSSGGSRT
Chain of Proto-oncogene tyrosine-protein kinase Src (P12931 2-536 limits assumed): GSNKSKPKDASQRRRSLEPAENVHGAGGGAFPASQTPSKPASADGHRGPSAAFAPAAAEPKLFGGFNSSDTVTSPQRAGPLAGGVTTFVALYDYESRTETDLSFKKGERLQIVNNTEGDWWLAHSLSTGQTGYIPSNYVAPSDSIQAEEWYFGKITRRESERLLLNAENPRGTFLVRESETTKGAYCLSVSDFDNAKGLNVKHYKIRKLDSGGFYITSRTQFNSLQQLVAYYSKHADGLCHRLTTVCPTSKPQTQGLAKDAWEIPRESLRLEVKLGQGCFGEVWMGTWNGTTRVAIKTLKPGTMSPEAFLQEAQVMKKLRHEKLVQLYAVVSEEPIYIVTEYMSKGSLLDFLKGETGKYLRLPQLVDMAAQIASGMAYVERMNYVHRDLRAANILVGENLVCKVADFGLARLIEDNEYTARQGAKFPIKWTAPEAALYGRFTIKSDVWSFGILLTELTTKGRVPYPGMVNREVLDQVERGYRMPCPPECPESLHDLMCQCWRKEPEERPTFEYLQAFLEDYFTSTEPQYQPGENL
Chain of Tyrosine-protein kinase JAK2 (O60674 whole entry): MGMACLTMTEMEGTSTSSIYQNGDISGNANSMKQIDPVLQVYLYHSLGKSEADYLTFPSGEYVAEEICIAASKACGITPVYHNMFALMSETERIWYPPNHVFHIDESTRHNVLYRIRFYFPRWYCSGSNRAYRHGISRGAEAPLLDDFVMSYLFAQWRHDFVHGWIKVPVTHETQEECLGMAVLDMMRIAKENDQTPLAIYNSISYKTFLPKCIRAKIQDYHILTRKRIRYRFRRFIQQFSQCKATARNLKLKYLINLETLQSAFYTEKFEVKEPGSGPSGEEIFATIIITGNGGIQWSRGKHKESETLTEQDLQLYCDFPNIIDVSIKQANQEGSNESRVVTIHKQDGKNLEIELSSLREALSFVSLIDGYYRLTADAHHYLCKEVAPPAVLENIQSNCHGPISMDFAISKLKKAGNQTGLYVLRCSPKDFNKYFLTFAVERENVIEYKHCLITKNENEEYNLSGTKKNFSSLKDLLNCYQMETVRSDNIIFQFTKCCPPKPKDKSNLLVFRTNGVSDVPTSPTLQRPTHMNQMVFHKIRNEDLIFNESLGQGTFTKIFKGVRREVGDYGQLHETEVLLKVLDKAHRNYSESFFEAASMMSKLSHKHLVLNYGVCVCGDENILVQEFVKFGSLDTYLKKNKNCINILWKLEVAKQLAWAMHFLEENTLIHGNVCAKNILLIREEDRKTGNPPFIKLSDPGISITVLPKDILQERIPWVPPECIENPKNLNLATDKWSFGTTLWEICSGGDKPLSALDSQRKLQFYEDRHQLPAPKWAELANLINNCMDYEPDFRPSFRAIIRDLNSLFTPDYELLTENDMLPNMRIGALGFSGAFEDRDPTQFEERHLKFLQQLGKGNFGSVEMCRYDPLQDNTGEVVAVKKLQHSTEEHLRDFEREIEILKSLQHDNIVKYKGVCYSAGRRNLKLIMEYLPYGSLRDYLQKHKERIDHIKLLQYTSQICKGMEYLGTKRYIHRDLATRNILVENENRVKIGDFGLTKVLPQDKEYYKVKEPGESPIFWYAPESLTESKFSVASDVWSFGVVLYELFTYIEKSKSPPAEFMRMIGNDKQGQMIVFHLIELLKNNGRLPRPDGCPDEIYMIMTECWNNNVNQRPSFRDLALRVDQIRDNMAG
Chain of Transcription factor ETV6 (P41212 whole entry): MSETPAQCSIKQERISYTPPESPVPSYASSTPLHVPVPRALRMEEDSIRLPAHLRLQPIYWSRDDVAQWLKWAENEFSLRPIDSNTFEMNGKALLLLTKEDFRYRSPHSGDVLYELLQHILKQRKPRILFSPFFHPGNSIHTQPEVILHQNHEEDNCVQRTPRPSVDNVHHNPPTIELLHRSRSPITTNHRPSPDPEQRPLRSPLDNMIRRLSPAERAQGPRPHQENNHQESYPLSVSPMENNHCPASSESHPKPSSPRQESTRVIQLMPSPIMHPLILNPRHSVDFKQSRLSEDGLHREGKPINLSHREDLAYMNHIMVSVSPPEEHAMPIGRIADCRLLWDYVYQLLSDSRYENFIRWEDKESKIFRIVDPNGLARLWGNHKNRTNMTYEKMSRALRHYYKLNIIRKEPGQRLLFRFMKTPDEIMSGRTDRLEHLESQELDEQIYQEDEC
Chain of Serine/threonine-protein kinase PAK 2 (Q13177 whole entry, the tested form may be a part): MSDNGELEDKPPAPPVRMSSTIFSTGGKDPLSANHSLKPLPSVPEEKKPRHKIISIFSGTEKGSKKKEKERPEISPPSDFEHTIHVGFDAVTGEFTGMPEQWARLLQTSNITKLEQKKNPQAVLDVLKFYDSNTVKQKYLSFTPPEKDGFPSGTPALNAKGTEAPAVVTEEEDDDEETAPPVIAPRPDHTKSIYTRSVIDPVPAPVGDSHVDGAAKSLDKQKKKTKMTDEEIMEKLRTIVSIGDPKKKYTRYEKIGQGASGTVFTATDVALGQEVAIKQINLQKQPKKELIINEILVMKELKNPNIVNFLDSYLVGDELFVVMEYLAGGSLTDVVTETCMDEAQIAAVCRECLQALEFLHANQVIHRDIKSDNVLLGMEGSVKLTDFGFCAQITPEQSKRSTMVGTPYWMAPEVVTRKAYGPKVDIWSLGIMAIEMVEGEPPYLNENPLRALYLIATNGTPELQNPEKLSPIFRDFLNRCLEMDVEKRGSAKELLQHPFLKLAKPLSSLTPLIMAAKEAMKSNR

Cc1cc(Nc2ncc(Cl)c(Nc3ccccc3S(=O)(=O)C(C)C)n2)c(OC(C)C)cc1C1CCNCC1 [CERITINIB]
microsomal CLint [1]: 19 µL/min/mg | pIC50 [2]: < 5.00 | TGI (NCI-H2228 [3]): Dose-dependent effect | Tmax [4]: 8 h | Cmax [5]: 1760 nM | pIC50 [6]: 7.22 | Cmax [7]: 696 nM | half-life [8]: 1560 min | Vd [9]: 21.2 L/kg | pIC50 [10]: < 5.00 | TGI (KARPAS-299): Dose-dependent effect | Drug uptake [11]: Active | Cmax [12]: 2330 nM | Cmax [13]: 2530 nM | pIC50 [14]: 7.64 | bioavailability [15]: 55% | pIC50 [16]: 5.49 | pIC50 [17]: 6.21 | AUC [18]: 18.1 µM·h | pIC50 [19]: 5.64 | pIC50 [20]: 5.40 | pIC50 [21]: 5.90 | Vd [22]: 13.5 L/kg | Tmax [23]: 7 h | Tmax [24]: 1.8 min | pIC50 [25]: < 5.00 | pIC50 [26]: 5.71 | AUC [27]: 67.9 µM·h | Activity (Rattus norvegicus [28]): Non-toxic | pIC50 [29]: 5.77 | pIC50 [30]: 5.87 | Tmax [31]: 1.8 min | inhibition in vivo at 50 mg/kg (Rattus norvegicus [32]): 80% | T/C (NCI-H2228 [33]): 2% | pIC50 [34]: 5.74 | pIC50 [35]: 5.47 | Tmax [36]: 13 h | T/C (NCI-H2228 [37]): 67% | AUC [38]: 12.3 µM·h | Cmax (in vivo): 259 nM | pIC50 [39]: 5.10 | pIC50 [40]: 6.18 | pIC50 [41]: 5.56
